Results: ChEMBL document CHEMBL3351251, “3-Arylcoumarins: synthesis and potent anti-inflammatory activity” (Bioorg Med Chem Lett, 2014)
pIC50: −log10 of the molar value.

How the values were obtained:
[1] = system: RAW264.7; test: Anti-inflammatory activity in mouse RAW264.7 cells assessed as inhibition of LPS-induced nitric oxide production at 5 mg/L pre-incubated for 2 hrs before LPS stimulation for 24 hrs; assay type: functional
[2] = Cytotoxicity against LPS-stimulated mouse RAW264.7 cells assessed as cell viability at 5 mg/L incubated for 24 hrs by alamar blue assay; assay type: cell-based; conditions: LPS-stimulated RAW264.7 cells, read-out: Activity
[3] = system: RAW264.7; test: Anti-inflammatory activity in mouse RAW264.7 cells assessed as inhibition of LPS-induced nitric oxide production pre-incubated for 2 hrs before LPS stimulation for 24 hrs; assay type: functional, cell-based

Compound | inhibition at 5 µg/mL [1] | viability at 24 h, 5 mg/L [2] | pIC50 [3]
COc1ccc(-c2cc3cccc(OC)c3oc2=O)cc1OC | 32.3% | 87.7% | 
COc1cc(/C=C/C(=O)CC(=O)/C=C/c2ccc(O)c(OC)c2)ccc1O [CURCUMIN] | 77% |  | 5.21
COc1cc(Br)cc2cc(-c3ccc(F)cc3)c(=O)oc12 | 33.9% | 103% | 
COc1ccc(-c2cc3cc(Br)cc(OC)c3oc2=O)cc1OC | 53.5% | 98% | 
COc1cc(Br)cc2cc(-c3ccccc3)c(=O)oc12 | 111% | 29.6% | 
COc1ccc(OC)c(-c2cc3cc(Br)cc(OC)c3oc2=O)c1 | 45.9% | 93.5% | 
COc1cc(Br)cc2cc(-c3ccc(O)cc3)c(=O)oc12 | 91.3% | 24.4% | 
COc1cc(Br)cc2cc(-c3cccnc3)c(=O)oc12 | 58.6% | 84.9% | 
COc1ccc(-c2cc3cc(Cl)ccc3oc2=O)cc1OC | 31.2% | 105% | 
COc1ccc(-c2cc3ccccc3oc2=O)cc1OC | 47.4% | 47% | 
COc1cccc(-c2cc3cc(Cl)cc(Cl)c3oc2=O)c1 | 36% | 105% | 
COc1cc(Br)cc2cc(-c3cccc(OC(C)=O)c3)c(=O)oc12 | 84.1% | 66.5% | 
COc1cc(Br)cc2cc(-c3cccc(O)c3)c(=O)oc12 | 116% | 28.5% | 
COc1cc(Br)cc2cc(-c3ccc(OC(C)=O)cc3)c(=O)oc12 | 77.8% | 61.7% | 
COc1ccccc1-c1cc2cc(Br)cc(OC)c2oc1=O | 47.6% | 95.7% | 
O=c1oc2c(Cl)cc(Cl)cc2cc1-c1ccccc1 | 53.4% | 104% | 
COc1cc(-c2cc3cc(Br)cc(OC)c3oc2=O)cc(OC)c1OC | 47.3% | 115% | 
COc1ccc(-c2cc3cc(Cl)cc(Cl)c3oc2=O)cc1OC | 27.3% | 118% | 

Compound | inhibition at 5 µg/mL [1] | viability at 24 h, 5 mg/L [2] | pIC50 [3]
COc1ccc(-c2cc3cc(Cl)ccc3oc2=O)cc1 | 47.5% | 102% | 
COc1cc(-c2cc3cc(Cl)ccc3oc2=O)cc(OC)c1OC | 57.6% | 78.4% | 
COc1ccc(-c2cc3ccccc3oc2=O)cc1 | 59.6% | 93.4% | 
COc1cccc2cc(-c3ccccc3)c(=O)oc12 | 78.4% | 64.5% | 
COc1ccc(-c2cc3cccc(OC)c3oc2=O)cc1 | 44.6% | 81.3% | 
COc1cccc(-c2cc3cc(Br)cc(OC)c3oc2=O)c1 | 72.3% | 116% | 5.16
COc1ccccc1-c1cc2cc(Cl)cc(Cl)c2oc1=O | 76.9% | 119% | 5.07
COc1ccc(-c2cc3cc(Br)cc(OC)c3oc2=O)cc1 | 44.2% | 99.9% | 
O=c1oc2ccc(Cl)cc2cc1-c1ccc(Cl)cc1 | 12.1% | 114% | 
COc1cccc(-c2cc3ccccc3oc2=O)c1 | 49.2% | 48.4% | 
O=c1oc2ccccc2cc1-c1ccc(F)cc1 | 9.98% | 110% | 
O=c1oc2ccccc2cc1-c1ccccc1 | 69.5% | 104% | 
COc1cc(-c2cc3cccc(OC)c3oc2=O)cc(OC)c1OC | 52% | 54.4% | 
COc1cccc2cc(-c3ccc(Cl)cc3)c(=O)oc12 | 61.7% | 93.5% | 
COc1ccc(-c2cc3cc(Cl)cc(Cl)c3oc2=O)cc1 | 20.8% | 99.3% | 
COc1cccc2cc(-c3ccc(F)cc3)c(=O)oc12 | 47.6% | 127% | 
COc1ccccc1-c1cc2cc(Cl)ccc2oc1=O | 65.7% | 115% | 
COc1cccc(-c2cc3cccc(OC)c3oc2=O)c1 | 91.4% | 34.2% | 
